Test results: patent EP2992879B1, “PHARMACEUTICAL COMPOSITION FOR […] OF MOTOR NEURONS AND USE THEREOF” (China Medical University, priority 2012, dated 2014)

Experiments:
LC3-II [1] = assay: Western blotting of autophagy biomarker in spinal cord; assay type: in vivo, mice; settings: cervical, thoracic and lumbar spinal cord, compared with untreated control; oral 500 mg/kg-body weight once daily; β-actin internal control
Protocol: SOD1-G93A transgenic mice (60-day-old) were treated with butylidenephthalide by oral administration, with a dosage of 500 mg/ kg-body weight once daily. It has been indicated by research that SOD1-G93A transgenic mice lost its spinal motor neurons because of the significant increase of autophagy during the last phase of amyotrophic lateral sclerosis (which can be seen in In vivo optical imaging of motor neuron autophagy in a mouse model of amyotrophic lateral sclerosis. Autophagy 7:9, 1-8; September 2011, which is entirely incorporated hereinto by reference). Therefore, in this example, the SOD1-G93A transgenic mice in experimental group were sacrificed in extremis to collect their spinal cord, and the proteins were extracted from the spinal cord to perform Western blotting and to analyze the protein biomarker of autophagy, LC3-II, which was used to determine whether autophagy occurred in the lumbar spinal motor neurons of the mice, wherein β-actin was used as an internal control.

[2] = tested on: SOD1-G93A transgenic mice; assay: Histochemical staining (hematoxylin and eosin): count of spinal motor neurons; assay type: in vivo; settings: spinal cord, mice sacrificed in extremis
Protocol: SOD1-G93A transgenic mice (60-day-old) were treated with butylidenephthalide by oral administration, with a dosage of 500 mg/ kg-body weight once daily. The SOD1-G93A transgenic mice in the experimental group were sacrificed in extremis, and the spinal cord was collected to perform hematoxylin and eosin stain. The number of motor neurons in the spinal cord was observed and counted by using a microscope, and the data was compared with that of the untreated control group.

[3] = tested on: SOD1-G93A transgenic mice; assay: In vivo analysis: survival of SOD1-G93A transgenic mice; settings: 60-day-old SOD1-G93A transgenic mice, oral administration, 500 mg/kg-body weight once daily; for Survival days: n = 8, untreated control 127 ± 6.11, 500 mg/kg
From the text: It has been known that about 20% of amyotrophic lateral sclerosis patients were associated with mutations in the gene that encodes Cu/Zn superoxide dismutase enzyme (SOD1), and G93A was the major mutation site. […] A SOD1-G93A transgenic mouse will show the symptoms of amyotrophic lateral sclerosis within about 90±5 days postnatal and will die within about 125±5 days postnatal.
This example used the above SOD1-G93A transgenic mice as the object of study to perform in vivo analysis. SOD1-G93A transgenic mice (60-day-old) were treated with butylidenephthalide (purchased from ECHO Chemical) by oral administration, with a dosage of 500 mg/ kg-body weight once daily, wherein the unit "mg/kg-body weight" means the dosage required per kg-body weight. […]

[4] = tested on: SOD1-G93A transgenic mice; assay: In vivo analysis: BBB Locomotor Rating Scale of the hind limbs; settings: oral 500 mg/kg-body weight once daily from day 60
Protocol: SOD1-G93A transgenic mice (60-day-old) were treated with butylidenephthalide by oral administration, with a dosage of 500 mg/ kg-body weight once daily. After the mice were treated for 30 days, the hind limbs of the mice were examined by BBB scale (Basso, Beattie, and Bresnahan (BBB) Locomotor Rating Scale). The BBB scale of the hind limbs of normal mice was 21 points, while the BBB scale of disease-progressed SOD1-G93A transgenic mice decreased from 21 to 0 points, wherein the lower scale represents a more severe action disorder in the mice. BBB scale is used to record the drug efficiency.

LC3-II [5] = assay: Cellular experiment: Western blotting of LC3-II in NSCs after H2O2 stimulation of autophagy; assay type: cell-based, mouse; settings: 10 µg/mL for 12 hours, then H2O2 (2500 µM/mL) for 12 hours
Protocol: Cellular experiment was performed by using NSCs (neural stem cells) which can differentiate into mouse motor neurons to imitate mouse motor neurons.
NSCs were incubated in a culture dish (10 cm in diameter). The cells were washed with PBS when grown to a density of 60% confluence, and treated with different concentrations of butylidenephthalide for 12 hours. The cells were then treated with H2O2 (2500 µM/mL) for 12 hours to stimulate the autophagy of cells. Then, the cells were collected and the proteins were extracted, and the protein expression level of LC3-II in NSC was analyzed by SDS-PAGE and Western blotting.

SMILES: CCCC=C1OC(=O)c2ccccc21 [butylidenephthalide]
- protein expression level of LC3-II and pLC3-II (LC3-II [1]): significantly decreased
- The number of motor neurons ([2]; oral 500 mg/kg-body weight once daily from day 60, control 3 ± 3.1): 24
- The number of motor neurons ([2]; oral 500 mg/kg-body weight once daily from day 60, control 3 ± 3.1, listed as n-BP): 24 ± 4.2
- life lengthened as compared to the untreated control group [3]: about 22 ± 2 days
- Survival days [3]: about 149 ± 4.39 days
- Survival days ([3]; listed as n-BP): 149 ± 4.39 days
- BBB scale of the hind limbs ([4]; after 135 days (decreased rapidly)): 16 to 0 points
- BBB scale of the hind limbs ([4]; from 125 to 135 days (decreased slowly), normal mice 21 points, control fell from 19 to 0 after 110 days): 21 to 16 points
- protein expression level of LC3-II in NSC (LC3-II [5]): decrease the protein expression level of LC3-II
